Patent publication US20240245677A1, “SELECTED COMPOUNDS FOR TARGETED DEGRADATION OF BRD9” (C4 THERAPEUTICS, INC., priority 2021, published 2024)

Key:
[1] = Rat Hepatocyte Stability Assay; type: in vitro ADME; details: Sprague-Dawley, cryopreserved hepatocytes
Description: (§1) The metabolic stability of Compound 1 was evaluated using cryopreserved hepatocytes from mice, rats, dogs, cynomolgus monkeys, and humans.
(§2) 50 μL of 1 mM intermediate solutions for each test compound was prepared by adding 5 μL of 10 mM stock solution to 45 μL of a 1:1 mixture of water and acetonitrile. A 2 μM working stocks for each test compound were prepared in incubation media, InvitroGRO™ KHB (Bio IVT, Westbury, NY, USA), by adding 2 μL of 1 mM intermediate stock to 998 μL of incubation media.
(§3) To thaw the hepatocytes, InvitroGRO™ HT thawing medium (BioIVT, Westbury, NY, USA) was prewarmed to 37° C., and 48 mL of warmed thawing medium was transferred to a sterile 50 mL conical tube. The hepatocyte vial was removed from the liquid nitrogen Dewar, and gently thawed in a water bath at 37° C. for 1-2 minutes, then the contents of the vial were emptied into a conical tube with prewarmed InvitroGRO HT medium. 1 mL of prewarmed InvitroGRO HT medium was added to each emptied hepatocyte vial to resuspend any remaining cells, and the contents were pipetted into the hepatocyte suspension. The tube containing the hepatocyte suspension was centrifuged at 50*g for 5 minutes. The supernatant was removed carefully, and the remaining pellet was resuspended by adding 1 mL of incubation media, InvitroGRO KHB, and gently shaking until there were no clumps.
(§4) Cell viability was determined using the trypan blue method. 25 μL of hepatocyte cell suspension was added to a trypan blue (TB) solution (containing 775 μL InvitroGRO KHB and 200 μL of Trypan Blue). Cell count was taken using a hemacytometer.
(§5) For mouse hepatocytes, 200 μL of hepatocytes (0.8×10^6 cells/mL) were added to the wells of a 48 well plate (Catalog No. 92048, TPP Techno Plastic Products AG, Trasadingen, Switzerland) and pre-incubated for 30 minutes at 37° C. For rat, dog, monkey, […], 200 μL of hepatocytes (2×10^6 cells/mL) were added to the wells of a 48 well plate (Catalog No. 92048, TPP Techno Plastic Products AG, Trasadingen, Switzerland) and pre-incubated for 30 minutes at 37° C.
(§6) For all species of hepatocytes, once the pre-incubation period was complete, 200 μL of 2 μM working stock of test compound was added to the wells of the plate, and the plate was vortexed on a Vibramax™ 100 (P/N 544-21200-00, Heidolph Instruments GmbH & Co. KG, Schwabach, Germany) at 500 rpm in a 37° C. CO2 incubator (Model No. 51026280, ThermoFisher Scientific, Waltham, MA, USA). At each time point of 0, 15, 30, 60, 90, and 120 minutes, 50 μL of incubation mixture was precipitated with 200 μL of acetonitrile containing internal standard.
(§7) At the end of the experiment, the samples were centrifuged at 4000 rpm for 10 minutes. […]

[2] = tested on: cryopreserved hepatocytes from Sprague-Dawley rats; test: Rat Hepatocyte Stability Assay; type: in vitro ADME
Description: as §1, §2, §3, §4, §5, §6, §7

COc1cc(-c2cn(C)c(=O)c(C)c2C)cc(OC)c1CN1CC[C@H](N2CCN(c3ccc(N[C@H]4CCC(=O)NC4=O)cc3F)CC2)C(F)(F)C1 [Compound 1, (S)-3-((4-(4-((S)-1-(2,6-dimethoxy-4-(1,4,5-trimethyl-6-oxo-1,6-dihydropyridin-3-yl)benzyl)-3,3-difluoropiperidin-4-yl)piperazin-1-yl)-3-fluorophenyl)amino)-piperidine-2,6-dione]
half-life at 1 µM [1]: > 2 h | hepatocyte CLint at 1 µM ([1]; read-out: CL int cells): 3.7 µL/min/1e6 cells | CLh int in vivo [2]: 17.76 mL/min/Kg body wt. | CLhb scaled well stirred [2]: 14.2 mL/min/kg body wt.
